In patent publication US12116371B2, “Substituted pyridines as irreversible inhibitors of menin-MLL interaction” (BIOMEA FUSION, INC., priority 2018, dated 2024):
Like-named read-outs stand apart in the source and are kept apart here.

Key:
Conditions in all cases: for IC50: Homo sapiens
MOLM-13 cells = assay: Long term proliferation assay, Cell Titer-Glo read-out; type: cell-based, human
Experimental: (§1) Compounds of invention are tested in the 5 suspension lines by 14-day long-term proliferation assay.
(§2) The compound is tested in 10-pt dose titration (client will determine the starting concentration and the dilution scheme) and the final DMSO concentration is kept at 0.2%.
(§3) On Day 0, in a flat bottom 96-well plate, add 100 μL of cells per well at the densities optimized. Prepare compounds in DMSO at 500× final concentration. Dilute the compounds with DMSO at the dilution. Dilute the compounds in media at 3× final concentration. Add 50 μL of compound or DMSO at 3× final concentration to each well. Final volume in each well is 150 μL, and final concentration of DMSO is 0.2%. Also include 3 untreated control wells, by adding 50 μL of media alone. Incubate plates for 96 hours.
(§4) To do this take the total viable cell count calculated using step: • 1. Take the average of the replicates for each dose in order to be used in splitting the cells. • 2. Use a 96 well V-bottom plate to spin down the cells to remove old media and compound to split the cells. • 3. Based on the split ratio place the proper amount of media and cells into the V-bottom plate, and spin the plate at 1100 rpm for 5 minutes. • 4. Following the spin remove the media, careful not to disturb the cell pellet. Re-suspend pellet in 100 μL fresh media, and add to a new 96-well flat bottom plate. • 5. Add fresh compound, in the same manner as Step 3). • 6. Incubate plates for 72 hours. Repeat steps 5)-10) on Day 7. • 7. Incubate plates for 96 hours. Repeat Step 5)-10) on Day 11. • 8. Incubate 72 hours and repeat step 5) to take a final count. • 9. Data Analysis
(§5) To calculate growth for days 4, 7, 11, and 14: • 1. Calculate the split factor for day 4 to 7, day 7 to 11, and day 11-14. The split factor is the viable cells/mL on Day X (either 4, 7 or 11) divided by the density the cells are being split back to. • 2. For growth of cells from day 4 to 7, multiply the day 7 viable cells/mL density by the split factor from day 4. • 3. For growth of cells from day 7 to 11, multiply the day 11 viable cells/mL density by the days 4, and 7 split factors. • 4. For growth of cells from Day 11 to 14, multiply the Day 14 viable cells/mL density by the days 4, 7, and 11 split factors. • 5. Plot growth on semi-log chart (viable cells/mL on Y axis, in log, and days on X axis). • 6. The growth inhibition was calculated with the formula ((untreated cell numbers-treated cell numbers)/untreated cell)). • 7. Calculate the IC50 for each compound in each line using XLFit (Sigmoidal Dose-Response Model, y=(Bottom+((Top-Bottom)/(1+((IC50/×)^Hill))))).

MV4-11 cells = assay: as above; type: cell-based, human
Experimental: as §1, §2, §3, §4, §5

Panc 10.05 cells = assay: Proliferation assay, cells in adhesion; type: cell-based
MIAPaCa-2/AMG510 cells = assay: Proliferation assay, cells in adhesion; type: cell-based
KG-1 cells = assay: Long term proliferation assay, InCell read-out; type: cell-based
Experimental: as §1, §2, §3, §4, §5

OCI-AML-3 cells = assay: Long term proliferation assay, InCell read-out; type: cell-based
Experimental: as §1, §2, §3, §4, §5

MIAPaCa-2 cells = assay: Proliferation assay, cells in adhesion; type: cell-based
NCI-H23 cells = assay: Proliferation assay, cells in adhesion; type: cell-based

- IC50 (MOLM-13 cells; MOLM-13, 96 h, MOLM-13, Day 4, Cell Titer-Glo, read-out: Day 4 IC50): 100 nM
- IC50 (MOLM-13 cells; MOLM-13, 168 h, MOLM-13, Day 7, Cell Titer-Glo, read-out: Day 7 IC50): 50 nM
- IC50 (MOLM-13 cells; MOLM-13, 264 h, MOLM-13, Day 11, Cell Titer-Glo, read-out: Day 11 IC50): 50 nM
- IC50 (MOLM-13 cells; MOLM-13, 336 h, MOLM-13, Day 14, Cell Titer-Glo, read-out: Day 14 IC50): 80 nM
- IC50 (MOLM-13 cells; MOLM-13, MOLM-13, T4, CellTiter-Glo, read-out: IC50): 100 nM
- IC50 (MOLM-13 cells; MOLM-13, MOLM-13, T4, CellTiter-Glo, read-out: pIC50 (converted)): 97.7 nM
- IC50 (MOLM-13 cells; MOLM-13, MOLM-13, T11, CellTiter-Glo, read-out: IC50): 50 nM
- IC50 (MOLM-13 cells; MOLM-13, MOLM-13, T11, CellTiter-Glo, read-out: pIC50 (converted)): 47.9 nM
- IC50 (MV4-11 cells; MV4-11, 96 h, MV4-11, Day 4, Cell Titer-Glo, read-out: Day 4 IC50): 150 nM
- IC50 (MV4-11 cells; MV4-11, 168 h, MV4-11, Day 7, Cell Titer-Glo, read-out: Day 7 IC50): 70 nM
- IC50 (MV4-11 cells; MV4-11, 264 h, MV4-11, Day 11, Cell Titer-Glo, read-out: Day 11 IC50): 60 nM
- IC50 (MV4-11 cells; MV4-11, 336 h, MV4-11, Day 14, Cell Titer-Glo, read-out: Day 14 IC50): 50 nM
- IC50 (MV4-11 cells; MV4-11, MV4-11, T4, CellTiter-Glo, read-out: IC50): 150 nM
- IC50 (MV4-11 cells; MV4-11, MV4-11, T4, CellTiter-Glo, read-out: pIC50 (converted)): 151 nM
- IC50 (MV4-11 cells; MV4-11, MV4-11, T11, CellTiter-Glo, read-out: IC50): 60 nM
- IC50 (MV4-11 cells; MV4-11, MV4-11, T11, CellTiter-Glo, read-out: pIC50 (converted)): 56.2 nM
- IC50 (Panc 10.05 cells; Panc1005, Panc 10.05, T4, read-out: IC50): 790 nM
- IC50 (Panc 10.05 cells; Panc1005, Panc 10.05, T4, read-out: pIC50 (converted)): 794 nM
- IC50 (Panc 10.05 cells; Panc1005, Panc 10.05, T7, read-out: IC50): 490 nM
- IC50 (Panc 10.05 cells; Panc1005, Panc 10.05, T7, read-out: pIC50 (converted)): 490 nM
- IC50 (Panc 10.05 cells; Panc1005, Panc 10.05, T11, read-out: IC50): 280 nM
- IC50 (Panc 10.05 cells; Panc1005, Panc 10.05, T11, read-out: pIC50 (converted)): 282 nM
- IC50 (MIAPaCa-2/AMG510 cells; MIA PaCa-2, MIAPaCa-2/AMG510, T4, read-out: IC50): 300 nM
- IC50 (MIAPaCa-2/AMG510 cells; MIA PaCa-2, MIAPaCa-2/AMG510, T4, read-out: pIC50 (converted)): 295 nM
- IC50 (MIAPaCa-2/AMG510 cells; MIA PaCa-2, MIAPaCa-2/AMG510, T7, read-out: IC50): 170 nM
- IC50 (MIAPaCa-2/AMG510 cells; MIA PaCa-2, MIAPaCa-2/AMG510, T7, read-out: pIC50 (converted)): 166 nM
- IC50 (MIAPaCa-2/AMG510 cells; MIAPaCa-2/AMG510, T11, read-out: IC50): 150 nM
- IC50 (MIAPaCa-2/AMG510 cells; MIAPaCa-2/AMG510, T11, read-out: pIC50 (converted)): 151 nM
- IC50 (OCI-AML-3 cells; OCI-AML-3, 96 h, OCI-AML-3, Day 4, read-out: Day 4 IC50): 110 nM
- IC50 (OCI-AML-3 cells; OCI-AML-3, 264 h, OCI-AML-3, Day 11, read-out: Day 11 IC50): 120 nM
- IC50 (OCI-AML-3 cells; OCI-AML-3, OCI-AML3, T4, read-out: IC50): 110 nM
- IC50 (OCI-AML-3 cells; OCI-AML-3, OCI-AML3, T4, read-out: pIC50 (converted)): 110 nM
- IC50 (OCI-AML-3 cells; OCI-AML-3, OCI-AML3, T11, read-out: IC50): 120 nM
- IC50 (OCI-AML-3 cells; OCI-AML-3, OCI-AML3, T11, read-out: pIC50 (converted)): 123 nM
- IC50 (MIAPaCa-2 cells; MIA PaCa-2, MIAPaCa-2, T4, read-out: IC50): 270 nM
- IC50 (MIAPaCa-2 cells; MIA PaCa-2, MIAPaCa-2, T4, read-out: pIC50 (converted)): 269 nM
- IC50 (MIAPaCa-2 cells; MIA PaCa-2, MIAPaCa-2, T7, read-out: IC50): 230 nM
- IC50 (MIAPaCa-2 cells; MIA PaCa-2, MIAPaCa-2, T7, read-out: pIC50 (converted)): 229 nM
- IC50 (MIAPaCa-2 cells; MIA PaCa-2, MIAPaCa-2, T11, read-out: IC50): 220 nM
- IC50 (MIAPaCa-2 cells; MIA PaCa-2, MIAPaCa-2, T11, read-out: pIC50 (converted)): 219 nM
- IC50 (NCI-H23 cells; NCI-H23, NCI-H23, T4, read-out: IC50): 350 nM
- IC50 (NCI-H23 cells; NCI-H23, NCI-H23, T4, read-out: pIC50 (converted)): 355 nM
- IC50 (NCI-H23 cells; NCI-H23, NCI-H23, T7, read-out: IC50): 200 nM
- IC50 (NCI-H23 cells; NCI-H23, NCI-H23, T7, read-out: pIC50 (converted)): 263 nM
- IC50 (NCI-H23 cells; NCI-H23, NCI-H23, T11, read-out: IC50): 190 nM
- IC50 (NCI-H23 cells; NCI-H23, NCI-H23, T11, read-out: pIC50 (converted)): 191 nM
Structure (SMILES): C=CC(=O)NC1CCCN(Cc2ccnc(C(=O)Nc3ccc(-c4cc5c(N6CCOCC6)ncnc5[nH]4)cc3)c2)C1 (stereo not drawn) [Compound 10]
- % max (MOLM-13 cells; MOLM-13, T4, CellTiter-Glo): 98%
- % max (MOLM-13 cells; MOLM-13, T11, CellTiter-Glo): 99%
- % max (MV4-11 cells; MV4-11, T4, CellTiter-Glo): 99%
- % max (MV4-11 cells; MV4-11, T11, CellTiter-Glo): 99%
- % max (Panc 10.05 cells; Panc 10.05, T4): 84%
- % max (Panc 10.05 cells; Panc 10.05, T7): 97%
- % max (Panc 10.05 cells; Panc 10.05, T11): 99%
- % max (MIAPaCa-2/AMG510 cells; MIAPaCa-2/AMG510, T4): 92%
- % max (MIAPaCa-2/AMG510 cells; MIAPaCa-2/AMG510, T7): 98%
- % max (MIAPaCa-2/AMG510 cells; MIAPaCa-2/AMG510, T11): 99%
- IC50 (KG-1 cells; KG-1, 96 h, KG-1, Day 4, read-out: Day 4 IC50): 520 nM
- IC50 (KG-1 cells; KG-1, 264 h, KG-1, Day 11, read-out: Day 11 IC50): 300 nM
- IC50 (KG-1 cells; KG-1, KG-1, T4, read-out: IC50): 520 nM
- IC50 (KG-1 cells; KG-1, KG-1, T4, read-out: pIC50 (converted)): 525 nM
- IC50 (KG-1 cells; KG-1, KG-1, T11, read-out: IC50): 300 nM
- IC50 (KG-1 cells; KG-1, KG-1, T11, read-out: pIC50 (converted)): 302 nM
- % max (KG-1 cells; KG-1, T4): 100%
- % max (KG-1 cells; KG-1, T11): 100%
- % max (OCI-AML-3 cells; OCI-AML3, T4): 100%
- % max (OCI-AML-3 cells; OCI-AML3, T11): 100%
- % max (MIAPaCa-2 cells; MIAPaCa-2, T4): 96%
- % max (MIAPaCa-2 cells; MIAPaCa-2, T7): 98%
- % max (MIAPaCa-2 cells; MIAPaCa-2, T11): 99%
- % max (NCI-H23 cells; NCI-H23, T4): 92%
- % max (NCI-H23 cells; NCI-H23, T7): 96%
- % max (NCI-H23 cells; NCI-H23, T11): 98%
